This is an account of results in BindingDB's records for patent US20240124427 (Idorsia Pharmaceuticals, 2024).

Each structure is given as a SMILES string.

The target of the assay is Galectin-3 (Homo sapiens, UniProt P17931). The assay can be described thus: Spectrophotometric Assay. How it is done: The inhibitory activity of compounds is determined in competitive binding assays. […] Finally, 25 μL/well of ABTS substrate is added.
Chain of Galectin-3 (P17931 whole entry): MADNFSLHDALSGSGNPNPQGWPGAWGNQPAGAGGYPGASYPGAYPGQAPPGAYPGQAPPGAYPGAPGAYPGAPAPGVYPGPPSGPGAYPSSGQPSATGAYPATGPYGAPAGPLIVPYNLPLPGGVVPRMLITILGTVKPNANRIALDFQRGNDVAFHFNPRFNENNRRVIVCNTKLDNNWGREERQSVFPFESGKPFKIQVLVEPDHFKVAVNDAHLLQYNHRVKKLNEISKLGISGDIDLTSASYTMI
For `CO[C@@H]1[C@@H](n2cc(-c3cc(F)c(F)c(F)c3)nn2)[C@@H](O)[C@@H](CO)O[C@H]1C(=O)N(c1cc(Br)cc(C#N)c1)[C@H]1COC[C@@H]1O` [US20240124427, Example 7], the IC50 is 83 nM.
In the case of `CO[C@@H]1[C@@H](n2cc(-c3cc(F)c(F)c(F)c3)nn2)[C@@H](O)[C@@H](CO)O[C@H]1C(=O)N(c1cc(Cl)cc(Cl)c1)[C@H]1COC[C@@H]1O` [US20240124427, Example 4] it was 72 nM.
To `CO[C@@H]1[C@@H](n2cc(-c3ccc(Br)c(F)c3F)nn2)[C@@H](O)[C@@H](CO)O[C@H]1C(=O)N(c1cc(Cl)cc(Cl)c1)[C@H]1CNC[C@@H]1O` [US20240124427, Example 62] belongs 12 nM; to `CO[C@@H]1[C@@H](n2cc(-c3cc(F)c(F)c(F)c3)nn2)[C@@H](O)[C@@H](CO)O[C@H]1C(=O)N(c1cc(Br)cc(C#N)c1)[C@@H]1COC[C@H]1O` [US20240124427, Example 36], 67 nM; to `CO[C@@H]1[C@@H](n2cc(-c3cc(F)c(Cl)c(F)c3)nn2)[C@@H](O)[C@@H](CO)O[C@H]1C(=O)N(c1cc(Br)cc(C#N)c1)[C@@H]1COC[C@H]1O` [US20240124427, Example 53], 46 nM.
To `CO[C@@H]1[C@@H](n2cc(-c3cc(F)c(Cl)c(F)c3)nn2)[C@@H](O)[C@@H](CO)O[C@H]1C(=O)N(c1cc(Br)cc(C#N)c1)[C@H]1COC[C@@H]1O` [US20240124427, Example 24] belongs 73 nM.

In general, IC50 refers to the point on the concentration scale where inhibition reaches its midpoint.
